Results on one compound are retold here after ChEMBL document CHEMBL1155491, “Acylurea connected straight chain hydroxamates as novel histone deacetylase inhibitors: Synthesis, SAR, and in vivo antitumor activity” (Bioorg Med Chem Lett, 2010).

In one data set the target is Histone deacetylase 4 (Homo sapiens, UniProt P56524). The experiment in a line: Inhibition of HDAC4.
For data set [1], the target named is T1, Histone deacetylase 1 (Homo sapiens, UniProt Q13547).
The target in data set [2] is T1, Histone deacetylase 1. The source holds these as a separate data set.
In data set [3] the target is T2, Protein deacetylase HDAC6 (Homo sapiens, UniProt Q9UBN7).
T2 sequence (Q9UBN7 whole entry): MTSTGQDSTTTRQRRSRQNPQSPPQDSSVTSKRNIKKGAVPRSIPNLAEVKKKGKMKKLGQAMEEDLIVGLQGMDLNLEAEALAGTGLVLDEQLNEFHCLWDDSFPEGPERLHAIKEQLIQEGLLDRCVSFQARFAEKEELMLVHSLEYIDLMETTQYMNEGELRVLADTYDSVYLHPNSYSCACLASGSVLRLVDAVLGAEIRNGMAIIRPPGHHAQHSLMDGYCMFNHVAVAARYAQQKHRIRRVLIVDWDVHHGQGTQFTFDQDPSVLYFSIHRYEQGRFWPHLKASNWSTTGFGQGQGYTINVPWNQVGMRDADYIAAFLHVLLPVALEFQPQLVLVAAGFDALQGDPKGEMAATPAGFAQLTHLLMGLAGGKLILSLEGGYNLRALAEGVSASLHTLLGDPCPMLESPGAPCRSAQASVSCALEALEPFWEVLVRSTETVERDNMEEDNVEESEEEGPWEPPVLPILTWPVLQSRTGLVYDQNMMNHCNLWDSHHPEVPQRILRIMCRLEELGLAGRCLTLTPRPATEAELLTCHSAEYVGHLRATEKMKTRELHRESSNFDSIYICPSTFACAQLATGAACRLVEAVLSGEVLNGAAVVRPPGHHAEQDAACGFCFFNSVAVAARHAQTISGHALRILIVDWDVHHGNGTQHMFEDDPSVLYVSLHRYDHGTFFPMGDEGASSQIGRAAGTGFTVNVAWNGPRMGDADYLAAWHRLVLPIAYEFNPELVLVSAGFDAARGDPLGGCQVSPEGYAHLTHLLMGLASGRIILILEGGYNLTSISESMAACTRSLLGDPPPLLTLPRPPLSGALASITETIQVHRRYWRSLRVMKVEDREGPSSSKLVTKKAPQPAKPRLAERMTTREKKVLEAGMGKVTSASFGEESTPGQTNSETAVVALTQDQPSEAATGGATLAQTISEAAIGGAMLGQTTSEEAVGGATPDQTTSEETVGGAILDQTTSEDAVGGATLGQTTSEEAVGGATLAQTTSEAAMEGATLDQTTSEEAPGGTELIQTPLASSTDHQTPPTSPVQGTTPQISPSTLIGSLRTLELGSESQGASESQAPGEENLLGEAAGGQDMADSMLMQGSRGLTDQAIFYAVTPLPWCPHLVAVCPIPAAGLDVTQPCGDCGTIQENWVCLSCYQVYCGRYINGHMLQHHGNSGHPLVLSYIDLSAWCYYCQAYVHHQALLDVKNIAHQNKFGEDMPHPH
The experiment in a line: Inhibition of HDAC6.

The target in a further data set is T3, Histone deacetylase 11 (Homo sapiens, UniProt Q96DB2).
T3 sequence (Q96DB2 whole entry): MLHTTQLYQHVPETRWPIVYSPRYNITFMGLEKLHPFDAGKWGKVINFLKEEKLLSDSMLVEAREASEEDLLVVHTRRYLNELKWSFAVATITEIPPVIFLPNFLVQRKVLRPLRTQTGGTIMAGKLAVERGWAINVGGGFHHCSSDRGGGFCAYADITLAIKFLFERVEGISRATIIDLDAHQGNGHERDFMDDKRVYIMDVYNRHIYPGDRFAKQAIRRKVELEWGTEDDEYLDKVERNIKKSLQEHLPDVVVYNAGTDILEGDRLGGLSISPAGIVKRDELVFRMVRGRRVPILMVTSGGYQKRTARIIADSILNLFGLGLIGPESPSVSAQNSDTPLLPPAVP
The experiment in a line: Inhibition of HDAC11.

For the next data set, the system named is PC-3. The data set can be described thus: Antiproliferative activity against human PC3 cells. In kind it is functional, cell-based.
Data set [4] concerns the target T4, Polyamine deacetylase HDAC10 (Homo sapiens, UniProt Q969S8).
T4 sequence (Q969S8 whole entry): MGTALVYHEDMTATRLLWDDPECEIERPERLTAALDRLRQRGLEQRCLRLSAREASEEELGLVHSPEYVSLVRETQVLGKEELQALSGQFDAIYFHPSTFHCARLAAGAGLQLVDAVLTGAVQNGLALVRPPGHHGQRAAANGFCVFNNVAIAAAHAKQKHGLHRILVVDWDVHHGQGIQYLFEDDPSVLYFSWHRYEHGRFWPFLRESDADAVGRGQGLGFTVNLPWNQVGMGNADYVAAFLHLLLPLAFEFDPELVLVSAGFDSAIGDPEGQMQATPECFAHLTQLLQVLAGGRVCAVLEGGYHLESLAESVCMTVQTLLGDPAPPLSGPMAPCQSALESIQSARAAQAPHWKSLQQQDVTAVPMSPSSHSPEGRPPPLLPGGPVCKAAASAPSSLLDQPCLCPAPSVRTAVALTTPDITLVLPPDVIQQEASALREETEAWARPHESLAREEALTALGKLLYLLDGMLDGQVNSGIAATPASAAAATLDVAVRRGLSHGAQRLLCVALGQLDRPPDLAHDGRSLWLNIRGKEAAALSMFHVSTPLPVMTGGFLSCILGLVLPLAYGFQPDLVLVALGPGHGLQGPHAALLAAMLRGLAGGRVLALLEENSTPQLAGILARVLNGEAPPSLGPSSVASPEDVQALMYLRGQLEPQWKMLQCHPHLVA
The experiment in a line: Inhibition of HDAC10.

The subject of a further data set is A2780. The experiment in a line: Antiproliferative activity against human A2780 cells. In kind it is functional, cell-based.
A short description of data set [5]: Solubility at pH 7. To be noted: buffer. In kind it is physicochemical.
The next data set deals with Histone deacetylase 3 (Homo sapiens, UniProt O15379). The data set can be described thus: Inhibition of HDAC3.
Data set [6] in a line: Half life in rat liver microsome. In kind it is ADME. To be noted: liver microsomes. (Liver microsomes are a subcellular fraction often used to study metabolism.)
For another data set, the system named is HCT-116. The experiment in a line: Antiproliferative activity against human HCT116 cells. In kind it is functional, cell-based.
The nature of data set [7]: Thermodynamic solubility at pH 7.4. In kind it is physicochemical. The conditions noted are these: buffer, read-out: Therm_solubility.
A further data set deals with Histone deacetylase 9 (Homo sapiens, UniProt Q9UKV0). The data set can be described thus: Inhibition of HDAC9.
A short description of data set [8]: Half life in mouse liver microsome. In kind it is ADME. The conditions noted are these: liver microsomes.
For the next data set, the target named is Histone deacetylase 7 (Homo sapiens, UniProt Q8WUI4). The experiment in a line: Inhibition of HDAC7.
For a further data set, the target named is T5, Histone deacetylase 8 (Homo sapiens, UniProt Q9BY41).
T5 sequence (Q9BY41 whole entry): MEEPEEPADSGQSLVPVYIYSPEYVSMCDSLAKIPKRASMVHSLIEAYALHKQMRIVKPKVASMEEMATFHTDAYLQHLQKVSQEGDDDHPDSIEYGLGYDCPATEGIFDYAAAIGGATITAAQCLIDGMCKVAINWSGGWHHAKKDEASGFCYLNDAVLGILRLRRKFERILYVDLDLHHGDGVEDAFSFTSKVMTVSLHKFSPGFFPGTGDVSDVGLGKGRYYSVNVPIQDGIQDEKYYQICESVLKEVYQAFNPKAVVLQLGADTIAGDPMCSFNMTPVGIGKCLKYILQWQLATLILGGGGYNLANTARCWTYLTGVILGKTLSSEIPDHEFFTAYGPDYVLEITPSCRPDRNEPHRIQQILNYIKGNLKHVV
The data set can be described thus: Inhibition of HDAC8.

The next data set addresses Histone deacetylase 2 (Homo sapiens, UniProt Q92769).
Data set [9] addresses T1, Histone deacetylase 1. The experiment in a line: Inhibition of HDAC1 in human COLO205 cells assessed as induction of histone H3 acetylation at 10 uM by Western-immuno blotting. In kind it is cell-based. The conditions noted are these: COLO 205.
Data set [10] is described as follows: Half life in human liver microsome. In kind it is ADME. The conditions noted are these: liver microsomes.
Data set [11] is described as follows: Octanol-water distribution coefficient, log D of the compound. In kind it is physicochemical.
The target in another data set is Histone deacetylase 5 (Homo sapiens, UniProt Q9UQL6). The data set can be described thus: Inhibition of HDAC5.

In brackets after ≈: the same amount, converted by molar mass. Activity calls are given as the source filed them. The rule behind the calls is not given here. Where only a bound is given, the exact number is not on record here.

T1 sequence (Q13547 whole entry): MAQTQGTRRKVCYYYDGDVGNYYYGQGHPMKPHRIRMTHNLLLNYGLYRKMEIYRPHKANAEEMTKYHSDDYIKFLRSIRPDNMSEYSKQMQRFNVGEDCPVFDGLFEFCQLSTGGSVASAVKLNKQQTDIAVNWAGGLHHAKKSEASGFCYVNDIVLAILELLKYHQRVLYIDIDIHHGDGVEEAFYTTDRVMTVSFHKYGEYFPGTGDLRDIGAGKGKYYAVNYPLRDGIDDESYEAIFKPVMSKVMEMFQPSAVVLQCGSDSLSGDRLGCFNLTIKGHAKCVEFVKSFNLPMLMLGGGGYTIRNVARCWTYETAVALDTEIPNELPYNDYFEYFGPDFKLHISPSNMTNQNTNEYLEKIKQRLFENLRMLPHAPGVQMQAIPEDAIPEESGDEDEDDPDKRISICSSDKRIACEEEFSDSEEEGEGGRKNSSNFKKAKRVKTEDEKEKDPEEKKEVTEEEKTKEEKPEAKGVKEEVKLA
Sequence of Histone deacetylase 4 (P56524 whole entry): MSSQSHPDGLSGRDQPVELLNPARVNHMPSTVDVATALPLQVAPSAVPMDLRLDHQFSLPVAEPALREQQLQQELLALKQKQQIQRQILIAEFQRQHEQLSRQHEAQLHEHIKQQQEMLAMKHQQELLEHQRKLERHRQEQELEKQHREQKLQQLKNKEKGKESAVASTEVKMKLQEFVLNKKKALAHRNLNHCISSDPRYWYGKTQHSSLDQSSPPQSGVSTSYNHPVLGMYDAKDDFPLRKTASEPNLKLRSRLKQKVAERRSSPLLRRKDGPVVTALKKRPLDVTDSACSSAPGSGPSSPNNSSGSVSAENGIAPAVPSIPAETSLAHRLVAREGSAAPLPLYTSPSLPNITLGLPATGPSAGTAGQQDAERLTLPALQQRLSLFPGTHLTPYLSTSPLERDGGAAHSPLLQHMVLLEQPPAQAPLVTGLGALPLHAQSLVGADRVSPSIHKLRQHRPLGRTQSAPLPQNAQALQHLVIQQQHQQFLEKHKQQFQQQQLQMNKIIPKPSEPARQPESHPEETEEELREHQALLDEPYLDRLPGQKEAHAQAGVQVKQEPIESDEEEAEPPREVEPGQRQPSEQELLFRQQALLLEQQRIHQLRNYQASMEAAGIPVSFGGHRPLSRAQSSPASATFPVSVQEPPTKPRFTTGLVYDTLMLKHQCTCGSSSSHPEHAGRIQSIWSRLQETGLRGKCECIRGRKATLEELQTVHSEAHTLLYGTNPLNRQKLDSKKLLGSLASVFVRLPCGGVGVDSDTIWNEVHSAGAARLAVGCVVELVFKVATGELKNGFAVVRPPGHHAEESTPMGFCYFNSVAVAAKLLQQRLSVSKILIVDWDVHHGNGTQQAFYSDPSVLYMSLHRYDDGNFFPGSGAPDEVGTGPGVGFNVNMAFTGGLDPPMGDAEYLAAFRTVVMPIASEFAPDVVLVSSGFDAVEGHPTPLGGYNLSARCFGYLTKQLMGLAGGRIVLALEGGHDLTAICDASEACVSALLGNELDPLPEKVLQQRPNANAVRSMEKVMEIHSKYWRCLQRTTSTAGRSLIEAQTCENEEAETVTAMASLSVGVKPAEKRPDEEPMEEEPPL
Sequence of Histone deacetylase 5 (Q9UQL6 whole entry): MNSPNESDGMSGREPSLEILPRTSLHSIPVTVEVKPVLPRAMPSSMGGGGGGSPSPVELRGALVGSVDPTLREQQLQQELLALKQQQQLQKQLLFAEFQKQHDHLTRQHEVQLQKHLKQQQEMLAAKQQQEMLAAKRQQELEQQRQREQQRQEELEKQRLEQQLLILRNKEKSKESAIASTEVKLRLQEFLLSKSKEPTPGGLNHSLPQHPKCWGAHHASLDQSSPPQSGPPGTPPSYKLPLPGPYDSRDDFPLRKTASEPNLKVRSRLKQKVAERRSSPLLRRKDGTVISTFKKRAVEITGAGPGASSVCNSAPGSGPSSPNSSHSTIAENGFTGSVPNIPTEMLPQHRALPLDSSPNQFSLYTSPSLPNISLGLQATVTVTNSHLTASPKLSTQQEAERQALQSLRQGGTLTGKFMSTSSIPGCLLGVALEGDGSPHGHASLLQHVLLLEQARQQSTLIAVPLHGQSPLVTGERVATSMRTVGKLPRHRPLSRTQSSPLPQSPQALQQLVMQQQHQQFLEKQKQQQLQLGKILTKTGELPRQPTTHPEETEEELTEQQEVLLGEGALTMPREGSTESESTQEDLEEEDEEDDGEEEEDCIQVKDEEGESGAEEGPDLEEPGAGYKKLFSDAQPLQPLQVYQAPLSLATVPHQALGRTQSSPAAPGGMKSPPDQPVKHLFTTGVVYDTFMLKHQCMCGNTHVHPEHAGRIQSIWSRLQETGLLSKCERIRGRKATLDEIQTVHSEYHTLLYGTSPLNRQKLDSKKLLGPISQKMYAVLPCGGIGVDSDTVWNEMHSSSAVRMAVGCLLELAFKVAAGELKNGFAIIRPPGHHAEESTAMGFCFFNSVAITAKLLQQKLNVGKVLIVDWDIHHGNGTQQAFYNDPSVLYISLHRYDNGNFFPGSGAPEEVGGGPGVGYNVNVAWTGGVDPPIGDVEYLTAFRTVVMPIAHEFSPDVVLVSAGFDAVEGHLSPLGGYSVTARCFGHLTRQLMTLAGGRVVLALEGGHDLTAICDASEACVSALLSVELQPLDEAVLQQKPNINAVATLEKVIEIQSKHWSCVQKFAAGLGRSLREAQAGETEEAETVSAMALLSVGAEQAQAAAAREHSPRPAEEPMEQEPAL
Sequence of Histone deacetylase 9 (Q9UKV0 whole entry): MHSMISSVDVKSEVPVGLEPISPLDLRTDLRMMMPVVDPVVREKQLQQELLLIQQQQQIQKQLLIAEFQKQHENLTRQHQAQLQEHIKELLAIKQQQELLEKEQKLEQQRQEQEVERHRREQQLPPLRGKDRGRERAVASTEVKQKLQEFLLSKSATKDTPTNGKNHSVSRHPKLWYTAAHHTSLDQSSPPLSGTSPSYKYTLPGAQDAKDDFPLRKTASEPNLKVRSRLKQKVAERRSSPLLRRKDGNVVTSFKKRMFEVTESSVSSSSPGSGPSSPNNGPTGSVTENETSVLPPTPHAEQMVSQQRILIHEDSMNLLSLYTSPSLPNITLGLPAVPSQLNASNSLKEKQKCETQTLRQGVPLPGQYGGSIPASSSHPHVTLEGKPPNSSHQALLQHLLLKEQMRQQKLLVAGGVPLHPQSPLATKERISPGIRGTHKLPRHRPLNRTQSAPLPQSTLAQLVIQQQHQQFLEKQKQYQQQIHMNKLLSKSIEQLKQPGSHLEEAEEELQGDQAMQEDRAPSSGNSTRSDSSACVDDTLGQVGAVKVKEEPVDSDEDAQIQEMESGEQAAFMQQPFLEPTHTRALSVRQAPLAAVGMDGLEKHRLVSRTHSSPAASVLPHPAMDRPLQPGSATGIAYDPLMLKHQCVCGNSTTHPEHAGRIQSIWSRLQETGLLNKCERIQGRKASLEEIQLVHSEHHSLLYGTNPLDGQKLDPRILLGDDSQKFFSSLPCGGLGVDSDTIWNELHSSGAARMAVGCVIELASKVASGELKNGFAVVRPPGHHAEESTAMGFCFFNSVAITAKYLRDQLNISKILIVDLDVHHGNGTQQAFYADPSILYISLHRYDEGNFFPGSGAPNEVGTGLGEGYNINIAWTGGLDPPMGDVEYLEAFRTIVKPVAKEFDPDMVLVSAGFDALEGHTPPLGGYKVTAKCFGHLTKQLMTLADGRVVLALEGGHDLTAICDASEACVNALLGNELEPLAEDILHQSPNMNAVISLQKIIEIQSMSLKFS
Sequence of Histone deacetylase 2 (Q92769 whole entry): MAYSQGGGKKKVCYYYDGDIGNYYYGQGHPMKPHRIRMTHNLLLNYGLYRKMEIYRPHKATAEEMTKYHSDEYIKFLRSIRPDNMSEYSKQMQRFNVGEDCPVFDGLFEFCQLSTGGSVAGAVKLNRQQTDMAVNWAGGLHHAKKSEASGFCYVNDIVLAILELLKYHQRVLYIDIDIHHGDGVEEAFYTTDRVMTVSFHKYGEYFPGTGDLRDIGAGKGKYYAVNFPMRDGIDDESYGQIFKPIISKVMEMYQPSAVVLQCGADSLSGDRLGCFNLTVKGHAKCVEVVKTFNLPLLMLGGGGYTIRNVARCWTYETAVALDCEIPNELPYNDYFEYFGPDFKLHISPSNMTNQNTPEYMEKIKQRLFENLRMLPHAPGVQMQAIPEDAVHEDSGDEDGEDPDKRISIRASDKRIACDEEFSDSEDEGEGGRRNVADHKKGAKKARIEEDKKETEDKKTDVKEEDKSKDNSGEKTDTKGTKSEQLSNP
Sequence of Histone deacetylase 3 (O15379 whole entry): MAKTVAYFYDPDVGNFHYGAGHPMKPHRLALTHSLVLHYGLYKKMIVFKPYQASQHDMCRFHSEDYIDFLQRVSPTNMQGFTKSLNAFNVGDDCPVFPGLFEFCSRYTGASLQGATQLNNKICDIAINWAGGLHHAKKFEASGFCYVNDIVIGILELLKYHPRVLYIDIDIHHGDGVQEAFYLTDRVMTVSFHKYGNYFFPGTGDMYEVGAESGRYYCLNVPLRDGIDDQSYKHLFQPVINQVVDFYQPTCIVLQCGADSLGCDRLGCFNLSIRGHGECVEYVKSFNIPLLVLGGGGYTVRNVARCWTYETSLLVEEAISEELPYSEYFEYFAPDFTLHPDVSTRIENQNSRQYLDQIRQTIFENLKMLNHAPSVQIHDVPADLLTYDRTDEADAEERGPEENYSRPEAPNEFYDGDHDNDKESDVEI

As usually defined, the Ki is the equilibrium dissociation constant of an inhibitor or competing ligand from its target. The low end stands for tighter binding, the high end for weaker binding. One may read the IC50 as the concentration needed to halve the response being measured. Low readings indicate higher potency, high ones lower potency. The solubility is how much of the substance goes into solution per volume. A higher solubility goes with much dissolved substance. One may read the half-life as the time in which the quantity being followed falls by half. The low end stands for rapid decline, the high end for slow decline. As a reminder, the logD is the decadic logarithm of the distribution of all forms, ionised or not, between an organic phase and buffer at a given pH. Lower therefore signals lower lipophilicity. On to `O=C(CCCCCNC(=O)NC(=O)c1ccc(Br)cc1)NO`, for which the Ki on Histone deacetylase 4 was 0.006 µM; at Histone deacetylase 1 [1], 0.008 µM; in [3], 0.008 µM; at Histone deacetylase 11, 0.009 µM; in data set [4], 0.009 µM; on Histone deacetylase 3, 0.008 µM. For the same compound, the Ki on Histone deacetylase 9 is 0.006 µM; at Histone deacetylase 7, 0.031 µM; at Histone deacetylase 8, 0.315 µM; on Histone deacetylase 2, 0.012 µM; on Histone deacetylase 5, 0.013 µM. The IC50 at Histone deacetylase 1 [1] was 0.013 µM; on Histone deacetylase 1 [2], 0.87 µM; with PC-3 it was 0.66 µM; with A2780, 0.45 µM; with HCT-116, 0.6 µM. The compound further gave a solubility in data set [5] of 51 µM (≈ 19 µg/mL). In addition, the half-life in [6] is 53 min; in [8], 31 min; in [10], above 60 min. In addition, in data set [7], the solubility thermodynamic is 0.015 mg/mL (≈ 40.3 µM). The outcome at Histone deacetylase 1 [9] was Active. Besides, the pH-dependent lipophilicity (logD) in data set [11] was 1.72.
